Test results taken from patent publication US9023789B2, “Amylin analogs and pharmaceutical compositions thereof” (Novo Nordisk A/S, priority 2012, dated 2015).
Numbered stars: 1 amine (or outer) side, 2 acyl side, 3 side chain; on linkers, the order of the positions; unused ones are H or OH. Bridge positions count the residues as written; N and C are the ends. Side chains are listed from the residue outwards. Peptide text beside a SMILES is read from it. * marks the point of attachment. C20 diacid = O=C(O)CCCCCCCCCCCCCCCCCCC(=O)*; γGlu = O=C(O)[C@H](CCC(=O)[*:2])N[*:1]; AEEA = NCCOCCOCC(=O)O

Experiments:
[1] = system: Sprague Dawley (SD) rats; assay: ASSAY (I) efficacy testing on appetite (food intake) using an ad libitum fed rat model; type: in vivo; conditions: rat, 30 nmol/kg
Summary of the method: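 Individual food consumption was logged each hour up to 7 h and again at 24 h, occasionally 48 h, with Grubbs-test outliers removed. Each 200–250 g Sprague Dawley rat, free-feeding in its home cage under reversed lighting, received a single ip, po or sc dose of 0.01–3 mg/kg at lights-off, alongside a vehicle group.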

[2] = molecular target: T1, human amylin 3(a) receptor (human calcitonin receptor + RAMP-3) in BHK570 cells (Homo sapiens, UniProt O60896+P30988); assay: ASSAY (II)a functional assay, human amylin receptor (CRE luciferase); type: cell-based; conditions: for EC50: human amylin receptor functional potency, assay (II), read-out: hAmylin-R funct. EC50
T1 construct: expressed in transfected cells
Summary of the method: (§1)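 Functional agonism was measured by CRE-luciferase reporter luminescence in BHK cells bearing calcitonin receptor, or calcitonin receptor plus RAMP-3 as the amylin 3(a) receptor. Stimulation lasted 3 hours at 37° C.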

[3] = molecular target: T2, human calcitonin (a) receptor in BHK570 cells (Homo sapiens, UniProt P30988); assay: ASSAY (II)a functional assay, human calcitonin receptor (CRE luciferase); type: cell-based; conditions: read-out: hCTR funct. EC50
T2 construct: expressed in transfected cells
T2 sequence (P30988 25-474): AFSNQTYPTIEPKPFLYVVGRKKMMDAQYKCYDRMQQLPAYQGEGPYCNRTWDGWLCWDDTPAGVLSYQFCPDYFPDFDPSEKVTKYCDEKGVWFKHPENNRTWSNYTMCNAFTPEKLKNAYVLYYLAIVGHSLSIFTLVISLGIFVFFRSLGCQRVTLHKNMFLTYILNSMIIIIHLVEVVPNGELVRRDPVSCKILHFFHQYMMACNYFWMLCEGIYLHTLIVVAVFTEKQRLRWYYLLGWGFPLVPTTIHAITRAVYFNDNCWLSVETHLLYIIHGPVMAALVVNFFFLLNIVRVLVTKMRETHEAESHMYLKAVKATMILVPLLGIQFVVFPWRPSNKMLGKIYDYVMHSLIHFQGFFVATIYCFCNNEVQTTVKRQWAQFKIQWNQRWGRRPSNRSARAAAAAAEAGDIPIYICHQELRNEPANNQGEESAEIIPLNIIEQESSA
Summary of the method: as §1

[4] = molecular target: T3, human amylin receptor (membranes from Amylin 3(a)/CRE-luc cells) (Homo sapiens, UniProt O60896+P30988); assay: ASSAY (V) binding to the human amylin receptor (SPA, 125I-rat amylin); conditions: for IC50: Table 4, read-out: hAmylin-R bind IC50;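 for all read-outs here: competition binding of cell membranes (35 ng/µL) mixed with SPA beads in 384-well plates at 40 µL total volume, read by scintillation counting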
T3 construct: expressed in transfected cells
T3 sequence (P30988 25-474): T2 sequence (P30988 25-474)
T3 sequence (O60896 24-148 partner): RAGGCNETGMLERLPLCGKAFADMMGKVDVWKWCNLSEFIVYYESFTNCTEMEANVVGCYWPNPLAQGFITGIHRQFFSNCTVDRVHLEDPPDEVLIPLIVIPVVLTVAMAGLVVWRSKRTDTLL

[5] = molecular target: T4, rat calcitonin receptor (Rattus norvegicus, UniProt P32214); assay: ASSAY (VIII) binding to the rat calcitonin receptor; conditions: Table 7, read-out: rCTR bind IC50
T4 construct: expressed in transfected cells; host or cells: BHK tk'ts 13 (transient, FuGENE 6), membranes
T4 sequence (P32214 25-479 isoform P32214-2 limits assumed): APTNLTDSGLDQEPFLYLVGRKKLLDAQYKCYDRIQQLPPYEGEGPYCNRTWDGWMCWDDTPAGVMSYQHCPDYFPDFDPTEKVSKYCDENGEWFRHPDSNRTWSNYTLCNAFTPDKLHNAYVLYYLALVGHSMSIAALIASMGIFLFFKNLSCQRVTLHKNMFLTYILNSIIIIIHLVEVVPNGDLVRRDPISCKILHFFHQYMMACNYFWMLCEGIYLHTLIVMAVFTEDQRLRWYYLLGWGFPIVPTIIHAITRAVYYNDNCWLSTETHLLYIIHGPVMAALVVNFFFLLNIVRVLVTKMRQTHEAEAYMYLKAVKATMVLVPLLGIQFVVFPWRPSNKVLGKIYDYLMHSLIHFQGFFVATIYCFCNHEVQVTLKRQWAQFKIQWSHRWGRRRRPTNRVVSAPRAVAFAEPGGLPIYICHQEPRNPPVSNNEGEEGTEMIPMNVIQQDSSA
Summary of the method: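 Cell membranes for binding came from BHK tk′ts 13 cells harvested approximately 48 hours after transient transfection with the rat receptor.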

[6] = hCTR funct. EC50 divided by hAmylin-R funct. EC50
[7] = hCTR funct. EC50 over hAmylin-R funct. EC50
[8] = human functional selectivity: hCTR funct. EC50 / hAmylin-R funct. EC50
[9] = Table 5, selectivity, hCTR bind IC50 / hAmylin-R bind IC50
[10] = Table 5a, selectivity, hCTR bind IC50 / hAmylin-R bind IC50
[11] = Table 5b, selectivity, hCTR bind IC50 / hAmylin-R bind IC50
[12] = Table 5c, selectivity, hCTR bind IC50 / hAmylin-R bind IC50
[13] = Table 7, human binding selectivity, included for comparison
[14] = Table 7a (preferred compounds), human binding selectivity, included for comparison
[15] = ratio of human calcitonin receptor binding IC50 to human amylin receptor binding IC50

Row | Compound | Food intake reduction 0-24 h 30 nmol/kg (%) [1] [%] | Food intake reduction 24-48 h 30 nmol/kg (%) [1] [%] | Ratio hCT/hAmylin funct. [2, 6] | Ratio hCT/hAmylin funct. [2, 7] | EC50 [2] [nM] | Ratio hCT/hAmylin funct. [2, 8] | EC50 [3] [nM] | IC50 [4] [nM] | Ratio hCT/hAmylin binding [4, 9] | Ratio hCT/hAmylin binding [4, 10] | Ratio hCT/hAmylin binding [4, 11] | Ratio hCT/hAmylin binding [4, 12] | Ratio hCT/hAmylin binding [4, 13] | Ratio hCT/hAmylin binding [4, 14] | Ratio hCT/hAmylin binding [4, 15] | IC50 [5] [nM]
1 | CC[C@H](C)[C@H](NC(=O)[C@H](C)NC(=O)CNC(=O)[C@H](Cc1ccccc1)NC(=O)[C@H](CC(N)=O)NC(=O)[C@@H]1CCCN1C(=O)[C@H](CO)NC(=O)[C@H](CO)NC(=O)[C@H](Cc1c[nH]cn1)NC(=O)[C@H](CCCNC(=N)N)NC(=O)[C@H](CC(C)C)NC(=O)[C@H](Cc1ccccc1)NC(=O)[C@H](CCC(=O)O)NC(=O)[C@H](C)NC(=O)[C@H](CC(C)C)NC(=O)[C@H](CCCNC(=N)N)NC(=O)[C@H](CCC(N)=O)NC(=O)[C@@H](NC(=O)[C@H](C)NC(=O)[C@@H]1CSSC[C@H](NC(=O)[C@@H](N)CCCCNC(=O)CC[C@H](NC(=O)CC[C@H](NC(=O)CCCCCCCCCCCCCCCCCCC(=O)O)C(=O)O)C(=O)O)C(=O)N[C@@H](CC(N)=O)C(=O)N[C@@H]([C@@H](C)O)C(=O)N[C@@H](C)C(=O)N[C@@H]([C@@H](C)O)C(=O)N1)[C@@H](C)O)C(=O)N1CCC[C@H]1C(=O)N[C@@H](CO)C(=O)N[C@@H](CO)C(=O)N[C@H](C(=O)N[C@@H](CC(N)=O)C(=O)N[C@H](C(=O)NCC(=O)N[C@@H](CO)C(=O)N[C@@H](CCCNC(=N)N)C(=O)N[C@H](C(=O)N[C@@H](Cc1ccc(O)cc1)C(N)=O)[C@@H](C)O)C(C)C)[C@@H](C)O [Example 89] (H-K([γGlu-γGlu-C20 diacid])CNTATCATQRLAEFLRHSSPNFGAIPSSTNVGSRTY-NH2; disulfide 2-7 (inferred); N-terminus assumed) | 46 | 37 | 27.8 | 27.8 | 0.404 | 27.8 | 11.2 | 1.16 | 28.0 | 28.0 | 28.0 | 28.0 | 28.0 | 28.0 | 28.0 | 115
2 | CC[C@H](C)[C@H](NC(=O)[C@H](C)NC(=O)CNC(=O)[C@H](Cc1ccccc1)NC(=O)[C@H](CC(N)=O)NC(=O)[C@@H]1CCCN1C(=O)[C@H](CO)NC(=O)[C@H](CO)NC(=O)[C@H](Cc1c[nH]cn1)NC(=O)[C@H](CCCNC(=N)N)NC(=O)[C@H](CC(C)C)NC(=O)[C@H](Cc1ccccc1)NC(=O)[C@H](CC(N)=O)NC(=O)[C@H](C)NC(=O)[C@H](CC(C)C)NC(=O)[C@H](CCCNC(=N)N)NC(=O)[C@H](CCC(N)=O)NC(=O)[C@@H](NC(=O)[C@H](C)NC(=O)[C@@H]1CSSC[C@H](NC(=O)[C@@H](N)CCCCNC(=O)COCCOCCNC(=O)COCCOCCNC(=O)CC[C@H](NC(=O)CCCCCCCCCCCCCCCCCCC(=O)O)C(=O)O)C(=O)N[C@@H](CC(N)=O)C(=O)N[C@@H]([C@@H](C)O)C(=O)N[C@@H](C)C(=O)N[C@@H]([C@@H](C)O)C(=O)N1)[C@@H](C)O)C(=O)N1CCC[C@H]1C(=O)N[C@@H](CO)C(=O)N[C@@H](CO)C(=O)N[C@H](C(=O)N[C@@H](CC(N)=O)C(=O)N[C@H](C(=O)NCC(=O)N[C@@H](CCCNC(=N)N)C(=O)N[C@@H](CC(N)=O)C(=O)N[C@H](C(=O)N[C@@H](Cc1ccc(O)cc1)C(N)=O)[C@@H](C)O)C(C)C)[C@@H](C)O [Example 95] (H-K([AEEA-AEEA-γGlu-C20 diacid])CNTATCATQRLANFLRHSSPNFGAIPSSTNVGRNTY-NH2; disulfide 2-7 (inferred); N-terminus assumed) | 22 | 0 | 33.0 | 33.0 | 0.651 | 33.0 | 21.5 | 0.967 | 63.4 | 63.4 | 63.4 | 63.4 | 63.4 | 63.4 | 63.4 | 389
3 | CC[C@H](C)[C@H](NC(=O)[C@H](C)NC(=O)CNC(=O)[C@H](Cc1ccccc1)NC(=O)[C@H](CC(N)=O)NC(=O)[C@@H]1CCCN1C(=O)[C@H](CO)NC(=O)[C@H](CO)NC(=O)[C@H](Cc1c[nH]cn1)NC(=O)[C@H](CCCNC(=N)N)NC(=O)[C@H](CC(C)C)NC(=O)[C@H](Cc1ccccc1)NC(=O)[C@H](CCC(=O)O)NC(=O)[C@H](C)NC(=O)[C@H](CC(C)C)NC(=O)[C@H](CCCNC(=N)N)NC(=O)[C@H](CCC(N)=O)NC(=O)[C@@H](NC(=O)[C@H](C)NC(=O)[C@@H]1CSSC[C@H](NC(=O)[C@@H](N)CCCCNC(=O)CC[C@H](NC(=O)CC[C@H](NC(=O)CCCCCCCCCCCCCCCCCCC(=O)O)C(=O)O)C(=O)O)C(=O)N[C@@H](CC(N)=O)C(=O)N[C@@H]([C@@H](C)O)C(=O)N[C@@H](C)C(=O)N[C@@H]([C@@H](C)O)C(=O)N1)[C@@H](C)O)C(=O)N1CCC[C@H]1C(=O)N[C@@H](CO)C(=O)N[C@@H](CO)C(=O)N[C@H](C(=O)N[C@@H](CC(N)=O)C(=O)N[C@H](C(=O)NCC(=O)N1CCC[C@H]1C(=O)N[C@@H](CCC(=O)O)C(=O)N[C@H](C(=O)N[C@@H](Cc1ccc(O)cc1)C(N)=O)[C@@H](C)O)C(C)C)[C@@H](C)O [Example 106] (H-K([γGlu-γGlu-C20 diacid])CNTATCATQRLAEFLRHSSPNFGAIPSSTNVGPETY-NH2; disulfide 2-7; N-terminus assumed) | 63 | 69 | 10.5 | 10.5 | 0.225 | 10.5 | 2.36 | 0.121 | 17.6 | 17.6 | 17.6 |  | 17.6 | 17.6 | 17.6 | 16.1
